The text below walks through data of patent publication US5693672A, “3,4,5-substituted benzoylguanidines, process for their preparation, their use as a medicament or diagnostic and medicament containing them” (priority 1992, dated 1997).

Data set [1] deals with T1, Na^+ /H^+ exchanger of rabbit erythrocytes (Oryctolagus cuniculus, UniProt P23791).
T1 construct: endogenous in cells; host or cells: erythrocytes in blood from the ear arteries of cholesterol-fed White New Zealand rabbits
The data set is described as follows: Inhibition of the Na^+ /H^+ exchanger of rabbit erythrocytes (amiloride-sensitive Na^+ influx, flame photometry). Type of data set: cell-based, White New Zealand rabbits. Particulars: pH 7.4, 37° C. The source says:
Inhibitors of the Na^+ /H^+ exchanger of rabbit erythrocytes:
White New Zealand rabbits (Ivanovas) received a standard diet containing 2% cholesterol for six weeks in order to activate Na^+ /H^+ exchange and thus to be able to determine the Na^+ influx into the erythrocytes via Na^+ /H^+ exchange by flame photometry. The blood was taken from the ear arteries and rendered incoagulable by 25 IU/ml of potassium heparin. A part of each sample was used for the duplicate determination of the hematocrit by centrifugation. Aliquots of 100 μl in each case were used to measure the Na^+ starting content of the erythrocytes.
In order to determine the amiloride-sensitive sodium influx, 100 μl of each blood sample were incubated at pH 7.4 and 37° C. in 5 ml in each case of a hyperosmolar salt/sucrose medium (mmol/1:140 NaCl, 3 KCl, 150 sucrose, 0.1 ouabain, 20 tris(hydroxymethyl)aminomethane). The erythrocytes were then washed three times with ice-cold MgCl2 /ouabain solution (mmol/1:112 MgCl2, 0.1 ouabain) and hemolized in 2.0 ml of distilled water. The intracellular sodium content was determined by flame photometry.
The Na^+ net influx was calculated from the difference between sodium starting values and the sodium content of the erythrocytes after incubation. The amiloride-inhibitable sodium influx resulted from the difference between the sodium content of the erythrocytes after incubation with and without 3×10^-4 mol/l amiloride. The process was also carried out in this manner in the case of the compounds according to the invention.

The test system of data set [2] is artificially induced ventricular fibrillation. Particulars: rat hearts, isolated; cited from earlier work.
The next data set has as its system cardiac arrhythmias. Particulars: in vivo; cited from earlier work.

Structures can show the parent of a compound that is named as a salt.

T1 sequence (P23791 whole entry): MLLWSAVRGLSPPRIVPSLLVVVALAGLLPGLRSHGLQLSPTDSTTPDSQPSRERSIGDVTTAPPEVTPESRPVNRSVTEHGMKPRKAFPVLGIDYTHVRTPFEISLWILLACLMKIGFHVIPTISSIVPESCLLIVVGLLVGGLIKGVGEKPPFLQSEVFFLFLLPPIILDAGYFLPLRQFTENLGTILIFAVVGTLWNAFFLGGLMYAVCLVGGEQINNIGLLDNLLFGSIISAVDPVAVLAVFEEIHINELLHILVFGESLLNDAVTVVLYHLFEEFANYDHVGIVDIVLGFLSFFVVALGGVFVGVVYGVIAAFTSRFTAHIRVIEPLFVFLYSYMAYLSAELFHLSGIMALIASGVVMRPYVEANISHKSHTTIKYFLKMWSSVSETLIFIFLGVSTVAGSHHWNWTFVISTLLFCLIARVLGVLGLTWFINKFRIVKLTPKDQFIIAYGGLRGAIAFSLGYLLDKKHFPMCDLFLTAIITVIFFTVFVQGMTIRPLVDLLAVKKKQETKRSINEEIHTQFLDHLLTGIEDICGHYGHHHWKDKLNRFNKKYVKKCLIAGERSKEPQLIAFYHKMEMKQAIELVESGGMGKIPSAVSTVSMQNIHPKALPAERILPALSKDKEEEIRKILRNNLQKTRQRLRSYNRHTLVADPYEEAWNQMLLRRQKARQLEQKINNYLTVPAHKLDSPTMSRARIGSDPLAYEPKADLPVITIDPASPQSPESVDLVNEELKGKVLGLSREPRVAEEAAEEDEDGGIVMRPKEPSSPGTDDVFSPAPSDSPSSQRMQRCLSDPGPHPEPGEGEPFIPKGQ

The molecule `CS(=O)(=O)c1cc(C(=O)N=C(N)N)ccc1C1CCCC1` [Example 10, 4-Cyclopentyl-3-methylsulfonylbenzoylguanidine hydrochloride] came in with a concentration for half-maximal inhibition (IC50) in data set [1] of 100 nM. For the molecule `CCN(c1nc(N)c(C(=O)N=C(N)N)nc1Cl)C(C)C` [ethylisopropylamiloride, Ethylisopropylamiloride], in data set [2], the “potency relative to amiloride in the ventricular fibrillation model” value is “even more potent than amiloride”. In data set [1], `CS(=O)(=O)c1cc(C(=O)N=C(N)N)ccc1-c1ccccn1` [Example 6, 3-Methylsulfonyl-4-(2'-pyridyl)benzoylguanidine hydrochloride] yielded an IC50 greater than 1000 nM. In data set [1], `CS(=O)(=O)c1cc(C(=O)N=C(N)N)ccc1CCc1ccccc1` [Example 9, 3-Methylsulfonyl-4-phenylethylbenzoylguanidine hydrochloride] registered an IC50 of 900 nM. The same measure, in the same setting: the result for `CS(=O)(=O)c1cc(C(=O)N=C(N)N)ccc1C1CCCCC1` [Example 5, 4-Cyclohexyl-3-methylsulfonylbenzoylguanidine hydrochloride] reads 1700 nM. In turn, `CS(=O)(=O)c1cc(C(=O)N=C(N)N)ccc1-c1ccc2ccccc2c1` [Example 2, 3-Methylsulfonyl-4-(2-naphthyl)benzoylguanidine hydrochloride] gave an IC50 in data set [1] of 500 nM. The same measure, in the same setting: the result for `CS(=O)(=O)c1cc(C(=O)N=C(N)N)ccc1C#Cc1ccccc1` [Example 7, 3-Methylsulfonyl-4-[(2'-phenyl)ethynyl]benzoylguanidine hydrochloride] reads 200 nM; that for `CS(=O)(=O)c1cc(C(=O)N=C(N)N)cc(C2CCCC2)c1` [Example 13, 3-Cyclopentyl-5-methylsulfonylbenzoylguanidine hydrochloride], 3000 nM. With `NC(N)=NC(=O)c1nc(Cl)c(N)nc1N` [amiloride], the “suppression of artificially induced ventricular fibrillation” value in data set [2] is “suppressed completely”. Moreover, in the data set with cardiac arrhythmias, the accompanying side effects entry is “hypotensive and saluretic action”; the antiarrhythmic effect result is listed as “only slightly pronounced”. Turning to `CS(=O)(=O)c1cc(C(=O)N=C(N)N)ccc1-c1cccc(-c2ccccc2)c1` [Example 3, 3-Methylsulfonyl-4-(3-biphenyl)benzoylguanidine hydrochloride], the IC50 in data set [1] was greater than 1000 nM.
